Laboratory results as given in US20140163218A1, “NOVEL PHTHALOCYANINE DERIVATIVES FOR THERAPEUTIC USE” (MOLTENI THERAPEUTICS S.R.L., priority 2011, published 2014).
Marks after values point to notes of the source that are not given here.

How the values were obtained:
[1] = Stability in water by HPLC (loss of titre and purity after 8 hours); format: physicochemical; conditions: 1 mg/mL in DMSO diluted 1:10 with deionised water, HPLC at time 0 and after 8 hours; result in words
Experimental: Protocol: each sample is dissolved in DMSO at the concentration of 1 mg/mL and then diluted 1:10 with deionised water. The solution is analysed in HPLC at time 0 and after 8 hours and any loss of titre and/or of purity is recorded by the following method: Column: Luna C18 (2) 150*4.6 mm (5 μm);
elution in gradient of AcOH 0.1% in water (Eluent A) and methanol (Eluent B) with % B 10-100 in 20 min or 40-100 depending on the polarity of the injected compound; flow 1 mL/min; temperature: 25° C.; injection […]; detection at 686 nm, bw 20 nm.

Candida albicans = conditions: 99.9% reduction; 1 hr incubation at 37° C.; red light 600-700 nm, 50 mW/cm^2 for 10 min, 30 J/cm^2
Experimental: (§1) The bacterial and fungal cells (ATCC of Staphylococcus aureus, Escherichia coli and Pseudomonas aeruginosa strains for the bacteria, Candida albicans for the yeasts) are grown in a Tryptic Soy Broth (TSB) liquid medium at 37° C. for 16-20 hr (bacteria) and in Sabouraud Dextrose Broth (SDB) at 37° C. for 24 hr (yeasts) in an aerobic atmosphere.
(§2) The cells are collected for centrifugation (2000 g, 15 min.) and re-suspended in sterile PBS (pH=7.3±0.1).
(§3) Exposure of the microorganisms to the photosensitiser and to the light source is carried out in wells of sterile, polystyrene, Microtiter plates, in PBS containing the desired concentration of photosensitiser. The plate is left to incubate at room temperature, for 5 min for the bacteria and for 1 hr at 37° C. for the yeasts. For lighting with red visible light a halogen lamp is used, model PDT 1200 Waldmann (A=600-700 nm) at 50 mW/cm^2 for 10 min and the total dose of light consequently used in the assay is of 30 J/cm^2.
(§4) After illuminating the bacterial or fungal suspension, and suitable dilutions thereof in sterile PBS, they are inoculated on agar plates to determine the number of residual UFCs. The plates are incubated at 37° C. for 24 hours and the results are recorded at the end of this period.

Escherichia coli = conditions: 99.9% reduction; 5 min incubation; red light 600-700 nm, 50 mW/cm^2 for 10 min, 30 J/cm^2
Experimental: as §1, §2, §3, §4

Pseudomonas aeruginosa = conditions: 99.9% reduction; 5 min incubation; red light 600-700 nm, 50 mW/cm^2 for 10 min, 30 J/cm^2
Experimental: as §1, §2, §3, §4

Staphylococcus aureus = conditions: 99.9% reduction; 5 min incubation; red light 600-700 nm, 50 mW/cm^2 for 10 min, 30 J/cm^2
Experimental: as §1, §2, §3, §4

| Substance | Loss of purity (% area) [1] | Loss of titre (%) [1] | MFC, 3 log (μM) C. albicans (Candida albicans) | MBC, 3 log (μM) E. coli (Escherichia coli) [μM] | MBC, 3 log (μM) P. aeruginosa (Pseudomonas aeruginosa) [μM] | MBC, 3 log (μM) S. aureus (Staphylococcus aureus) [μM] |
| --- | --- | --- | --- | --- | --- | --- |
| {bis-[3-(N-methyl-piperidin-1-ium)propyl-dipropvlsilyloxy]}silicon(IV) phthalocyanine dichloride [Compound 4] | insignificant (of ≦ to 0.1% for the loss of purity) | insig- nificant | 3.13* μM | 6.25 | 50 | 0.03 |
| {bis-[3-(m-N,N,N-trimethylammoniumphenyloxy)propyl-dipropylsilyloxyl]}silicon(IV) phthalocyanine dichloride [Compound 5] | insignificant (of ≦ to 0.1% for the loss of purity) | insig- nificant | 50 μM | 25 | 25 | 0.1 |
| {bis-[bis-(3-N,N,N-trimethylammoniumpropyl)]propylsilyloxy}silicon(IV) phthalocyanine tetrachloride [Compound 2] | insignificant (of ≦ to 0.1% for the loss of purity) | insig- nificant | >50 μM | 6.25 | 6.25 | 0.25 |
| {bis-[bis-(p-N,N,N-trimethylammoniumphenyl)]-3-(N-methyl-piperidine-1-ium)propylsilyloxy}silicon(IV) phthalocyanine hexachloride [Compound 1] | insignificant (of ≦ to 0.1% for the loss of purity) | insig- nificant | 12.5 μM | 6.25 | 6.25 | 0.78 |
| {bis-[bis-(p-N,N,N-trimethylammoniumphenyl)]propylsilyloxy}silicon(IV) phthalocyanine tetrachloride [Compound 3] | insignificant (of ≦ to 0.1% for the loss of purity) | insig- nificant | >50 μM | 3.13 | 1.56 | 0.05 |
